# Measurements: patent publication US20120134948A1, “ANTIMICROBIAL ETHER GUANIDINES” (EVONIK GOLDSCHMIDT GMBH, priority 2009, published 2012)
# Columns and labels:
# Type in all cases: cell-based
# test microorganisms = assay: Antimicrobial activity test, overall statement; conditions: overall observation; microbial count in negative controls unchanged
# Experimental: (§1) The test microorganisms were inoculated from a strain culture into an agar-containing Caso medium (Merck, Darmstadt, Germany) and incubated for 24 h to 48 hours at 25 to 37° C., depending on the microorganism. A Caso slanted agar tube was inoculated with this preculture and again incubated under identical conditions.
# (§2) To prepare the microorganism suspension to be tested, the microorganisms were washed off with 5 ml of phosphate-buffer saline (PBS, 50 mM potassium phosphate pH6, 100 mM NaCl), made up to 12.5 ml with PBS and resuspended by vortexing. To carry out the following test, this microorganism suspension was diluted to a microbial count of from 2U+5 to 8U+5.
# The products to be tested made as a stock solution; they contained 10 g of ethanol, 0.68 g of macrogol glycerol hydroxystearate 40 (Cremophor® RH40, Omikron, Neckarwestheim, Germany), 1 g of the active substance to be tested and 38.32 g of double-distilled water. […]
# (§3) To carry out the test, 1 ml-Eppendorf cubes were filled with 500 μl of microorganism suspension and with 500 μl stock solution and the contents were mixed carefully. After 20 min, 1 h and 3 h, respectively, 10 μl were removed from the tubes, and the live microbial count (colony-forming units, CFU) were determined by plating out various dilution of these test mixtures on Caso agar.
# Corynebacterium xerosis = assay: Antimicrobial activity, live microbial count (CFU) after contact in suspension
# Experimental: as §1, §2
# (§4) The products to be tested made as a stock solution; they contained 10 g of ethanol, 0.68 g of macrogol glycerol hydroxystearate 40 (Cremophor® RH40, Omikron, Neckarwestheim, Germany), 1 g of the active substance to be tested and 38.32 g of double-distilled water. This solution was mixed with the microorganism suspension at a ratio of 1:1 in the test and gave an active substance concentration in the test of 1%. If it was intended to test a lower active substance concentration than 1%, the stock solution of the active substance was made up at a correspondingly lower concentration. The substances tested were the ether guanidine of example 1, and double distilled water by way of negative control.
# as §3
# [1] = system: Staphylococcus epidermidis; assay: as above
# Experimental: as §1, §2, §4, §3
# Malassezia furfur = assay: as above
# Experimental: as §1, §2, §4, §3
# Candida albicans = assay: as above
# Experimental: as §1, §2, §4, §3
# Propionibacterium acnes = assay: as above
# Experimental: as §1, §2, §4, §3
# Streptococcus mutans = assay: as above
# Experimental: as §1, §2, §4, §3
# [2] = 1% Ex. 1, 0 min (starting count)
substance,measurement,setting,value
C12-15-oxypropylguanidinium chloride [Ex. 1],antimicrobial activity,test microorganisms,pronounced antimicrobial activity
same,CFU/ml 0 min,Corynebacterium xerosis; [2],1.7E+5 CFU/ml
same,CFU/ml 20 min,"Corynebacterium xerosis; 1% Ex. 1, 20 min",<2.0E+2 CFU/ml
same,CFU/ml 60 min,"Corynebacterium xerosis; 1% Ex. 1, 60 min",<2.0E+2 CFU/ml
same,CFU/ml 180 min,"Corynebacterium xerosis; 1% Ex. 1, 180 min",<2.0E+2 CFU/ml
same,CFU/ml 0 min,[1]; [2],1.2E+5 CFU/ml
same,CFU/ml 20 min,"[1]; 1% Ex. 1, 20 min",<2.0E+2 CFU/ml
same,CFU/ml 60 min,"[1]; 1% Ex. 1, 60 min",<2.0E+2 CFU/ml
same,CFU/ml 180 min,"[1]; 1% Ex. 1, 180 min",<2.0E+2 CFU/ml
same,CFU/ml 0 min,Malassezia furfur; [2],1.4E+5 CFU/ml
same,CFU/ml 20 min,"Malassezia furfur; 1% Ex. 1, 20 min",<2.0E+2 CFU/ml
same,CFU/ml 60 min,"Malassezia furfur; 1% Ex. 1, 60 min",<2.0E+2 CFU/ml
same,CFU/ml 180 min,"Malassezia furfur; 1% Ex. 1, 180 min",<2.0E+2 CFU/ml
same,CFU/ml 0 min,"Candida albicans; 0.01% Ex. 1, 0 min (starting count)",3.9E+5 CFU/ml
same,CFU/ml 20 min,"Candida albicans; 0.01% Ex. 1, 20 min",4.7E+5 CFU/ml
same,CFU/ml 60 min,"Candida albicans; 0.01% Ex. 1, 60 min",2.2E+5 CFU/ml
same,CFU/ml 180 min,"Candida albicans; 0.01% Ex. 1, 180 min",6.1E+4 CFU/ml
same,CFU/ml 0 min,"Candida albicans; 0.1% Ex. 1, 0 min (starting count)",3.9E+5 CFU/ml
same,CFU/ml 20 min,"Candida albicans; 0.1% Ex. 1, 20 min",5.5E+5 CFU/ml
same,CFU/ml 60 min,"Candida albicans; 0.1% Ex. 1, 60 min",4.3E+4 CFU/ml
same,CFU/ml 180 min,"Candida albicans; 0.1% Ex. 1, 180 min",<2.0E+2 CFU/ml
same,CFU/ml 0 min,Candida albicans; [2],3.9E+5 CFU/ml
same,CFU/ml 20 min,"Candida albicans; 1% Ex. 1, 20 min",<2.0E+2 CFU/ml
same,CFU/ml 60 min,"Candida albicans; 1% Ex. 1, 60 min",<2.0E+2 CFU/ml
same,CFU/ml 180 min,"Candida albicans; 1% Ex. 1, 180 min",<2.0E+2 CFU/ml
same,CFU/ml 0 min,Propionibacterium acnes; [2],2.0E+5 CFU/ml
same,CFU/ml 20 min,"Propionibacterium acnes; 1% Ex. 1, 20 min",<2.0E+2 CFU/ml
same,CFU/ml 60 min,"Propionibacterium acnes; 1% Ex. 1, 60 min",<2.0E+2 CFU/ml
same,CFU/ml 180 min,"Propionibacterium acnes; 1% Ex. 1, 180 min",<2.0E+2 CFU/ml
same,CFU/ml 0 min,Streptococcus mutans; [2],3.2E+5 CFU/ml
same,CFU/ml 20 min,"Streptococcus mutans; 1% Ex. 1, 20 min",<2.0E+2 CFU/ml
same,CFU/ml 60 min,"Streptococcus mutans; 1% Ex. 1, 60 min",<2.0E+2 CFU/ml
same,CFU/ml 180 min,"Streptococcus mutans; 1% Ex. 1, 180 min",<2.0E+2 CFU/ml
